The source of these data is ChEMBL document CHEMBL4028806, “Modulators of Sphingosine-1-phosphate Pathway Biology: Recent Advances of Sphingosine-1-phosphate Receptor 1 (S1P1) Agonists and Future Perspectives” (J Med Chem, 2017).

Data set [1] concerns Trachea. The data set is described as follows: Induction of tracheal constriction in Wistar rat at 10 uM.
For data set [2], the system named is Trachea. In words: Induction of tracheal constriction in Wistar rat at 1 uM.
The target of data set [3] is T1, Sphingosine 1-phosphate receptor 1 (Homo sapiens, UniProt P21453). The data set is described as follows: Agonist activity at human S1P1 receptor expressed in CHO cell membranes after 45 mins by [35S] GTPgammaS binding based scintillation counting analysis. The format is functional.
Data set [4] concerns the target T2, Sphingosine 1-phosphate receptor 3 (Homo sapiens, UniProt Q99500). In words: Agonist activity at human S1P3 receptor expressed in CHO cell membranes after 45 mins by [35S] GTPgammaS binding based scintillation counting analysis. It counts as functional.
For data set [5], the system named is Mus musculus. In words: Reduction in peripheral lymphocyte level in mouse administered iv measured 3 hrs post dose. The format is functional.
The species entered for data set [6] is Homo sapiens. The data set is described as follows: Toxicity in human assessed as reduction in heart rate at 10 mg measured on day 1. To be noted: in vivo.
Data set [7] has as its system Mus musculus. The data set is described as follows: Reduction in peripheral lymphocyte level in Swiss mouse at 10 mg/kg, po measured 24 hrs post dose. The format is functional. Also on record: scale not given: the % may be the effect or the level left.
The target in data set [8] is T2, Sphingosine 1-phosphate receptor 3. The data set is described as follows: Displacement of [33P]-S1P from human S1P3 receptor expressed in CHO cell membranes.
Data set [9] addresses T1, Sphingosine 1-phosphate receptor 1. In words: Displacement of [33P]-S1P from human S1P1 receptor expressed in CHO cell membranes.
In data set [10] the target is T2, Sphingosine 1-phosphate receptor 3. The data set is described as follows: Displacement of [33P]-S1P from S1P3 receptor (unknown origin) expressed in CHO cell membranes.
Data set [11] has as its target T1, Sphingosine 1-phosphate receptor 1. In words: Displacement of [33P]-S1P from S1P1 receptor (unknown origin) expressed in CHO cell membranes.
Data set [12] is described as follows: Oral bioavailability in mouse. As to conditions: in vivo. The format is ADME, organism-based.
The subject of data set [13] is Mus musculus. In words: Reduction in peripheral lymphocyte level in mouse administered po measured 3 hrs post dose. It counts as functional.
Data set [14] relates to Mus musculus. The data set is described as follows: Immunosuppressive activity in BALB/c mouse assessed as reduction in peripheral blood lymphocytes at 30 mg/kg, ip measured 4 days post dose. On the set-up: scale not given: the % may be the effect or the level left. It counts as functional.
The test system of data set [15] is Rattus norvegicus. The data set is described as follows: Reduction in peripheral lymphocyte level in rat at 10 mg/kg, po measured 6 hrs post dose. It counts as functional. Also on record: scale not given: the % may be the effect or the level left.
For data set [16], the species on record is Homo sapiens. The data set is described as follows: Toxicity in human assessed as reduction in heart rate measured every day for 9 days. As to conditions: 216 h.
The species named for data set [17] is Homo sapiens. The data set is described as follows: Toxicity in human assessed as reduction in heart rate at 1.25 mg measured for 2 days. To be noted: in vivo, 48 h.
The target in data set [18] is T1, Sphingosine 1-phosphate receptor 1. In words: Displacement of [33P]-S1P from S1P1 receptor (unknown origin) expressed in CHOK1 cells after 60 mins by microbeta scintillation proximity assay. It counts as cell-based.
Data set [19] addresses T2, Sphingosine 1-phosphate receptor 3. The data set is described as follows: Displacement of [33P]-S1P from S1P3 receptor (unknown origin) expressed in CHOK1 cells after 60 mins by microbeta scintillation proximity assay. It counts as cell-based.
Data set [20] in a line: Half life in po dosed Sprague-Dawley rat. It counts as ADME, organism-based. As to conditions: in vivo.
The nature of data set [21]: Half life in iv dosed Sprague-Dawley rat. To be noted: in vivo. It counts as ADME, organism-based.
The species named for data set [22] is Homo sapiens. The data set is described as follows: Toxicity in human assessed as reduction in heart rate at 10 mg measured 2 hrs post dose. As to conditions: in vivo.

Bounds are passed on as bounds.

T2 sequence (Q99500 whole entry): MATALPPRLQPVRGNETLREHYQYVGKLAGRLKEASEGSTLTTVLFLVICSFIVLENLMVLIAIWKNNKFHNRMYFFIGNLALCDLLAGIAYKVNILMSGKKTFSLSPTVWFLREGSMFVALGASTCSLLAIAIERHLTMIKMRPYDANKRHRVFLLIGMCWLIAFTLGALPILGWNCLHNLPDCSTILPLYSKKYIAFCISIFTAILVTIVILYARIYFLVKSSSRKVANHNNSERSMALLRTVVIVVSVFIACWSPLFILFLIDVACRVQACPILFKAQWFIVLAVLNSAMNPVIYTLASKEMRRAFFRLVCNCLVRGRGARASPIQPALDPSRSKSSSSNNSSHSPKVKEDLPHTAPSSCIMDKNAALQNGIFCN
T1 sequence (P21453 whole entry): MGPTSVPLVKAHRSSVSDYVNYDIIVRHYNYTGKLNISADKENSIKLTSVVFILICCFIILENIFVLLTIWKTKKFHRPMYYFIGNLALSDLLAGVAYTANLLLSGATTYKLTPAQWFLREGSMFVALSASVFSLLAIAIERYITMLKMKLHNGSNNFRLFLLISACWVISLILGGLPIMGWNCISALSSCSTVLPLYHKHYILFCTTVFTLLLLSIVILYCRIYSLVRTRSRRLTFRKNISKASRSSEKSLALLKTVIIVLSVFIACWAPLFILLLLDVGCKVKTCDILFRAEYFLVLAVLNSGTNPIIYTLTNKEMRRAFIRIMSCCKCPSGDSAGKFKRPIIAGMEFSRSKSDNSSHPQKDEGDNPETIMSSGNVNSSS

For the compound `CCc1cc(-c2noc(-c3cc(CC(C)C)nc(OC)c3)n2)cc(C)c1OC[C@@H](O)CO`, the Activity in [1] is 124%; in [2], < 5%.
`N#CC1(NC(=O)[C@@H](O)c2ccc(-c3noc(-c4onc(-c5ccccc5)c4C(F)(F)F)n3)cc2)CC1`: the EC50 in data set [3] is 15 nM; in data set [4], > 31000 nM.
Compound `CCCCCCCCc1ccc(CCC(N)COP(=O)(O)O)cc1` (centres undefined) returned an ED50 in data set [5] of 0.06 mg/kg.
For the compound `CCC/N=C1\S/C(=C\c2ccc(OC[C@H](O)CO)c(Cl)c2)C(=O)N1c1ccccc1C` [PONESIMOD], the Activity in data set [6] was 10 to 12 bpm.
As for `O=C(O)C1(C(=O)O)CC(NCc2ccc(-c3noc(-c4ccc(-c5ccccc5)c(F)c4)n3)cc2)C1`, the Activity in data set [7] was 86%.
Consider `CCc1cc(-c2noc(-c3cc(OC)nc(C(CC)CC)c3)n2)cc(C)c1OC[C@@H](O)CNC(=O)CO`, for which the results for the Activity in data set [1] and in data set [2] were 100% and < 5%, respectively.
With `CCCCCCCCc1ccc(CNCCCP(C)(=O)O)cc1`, the IC50 in data set [8] is 100 nM; in data set [9], 12 nM.
As for `CCCCCCCCc1ccc(CCC(N)(CO)CCP(=O)(O)O)cc1` (centres undefined), the values for the IC50 in data set [10] and in [11] were 7 nM and 6 nM, respectively. Also, in [5], it took a dose of 2.35 mg/kg to reach the 50% effect level (ED50).
Regarding `CCCCCCCCc1ccc(CN2CC(C(=O)O)C2)cc1`, the bioavailability in data set [12] is > 70%. Also, the IC50 is 4900 nM in data set [8] and 18 nM in [9]. The 50% effect level in data set [13] (ED50) was put at a dose of 5.2 mg/kg.
In turn, `CCCCCCCCc1ccc(CC[C@@H](N)C[C@H](O)P(=O)(O)O)cc1` gave an ED50 in [5] of 0.15 mg/kg.
As to `CCCCCCCCc1ccc2c(c1)CC(N)(CO)CC2` (centres undefined), in data set [14], the Activity is on record as 64%.
In the case of `CCc1cc(-c2nnc(-c3sc(C)c4c3C[C@@H]3[C@H]4C3(C)C)o2)cc(C)n1`, the Activity in data set [15] is recorded as 77%.
For `CCCCCCCCc1ccc(CCC(N)(CO)CO)cc1` [FINGOLIMOD], the figures for the Activity in data set [16] and in data set [17] were 1 to 2 bpm and 8 to 11 bpm, respectively.
In data set [2], `CCc1cc(-c2noc(-c3cc(CC(C)C)nc(OC)c3)n2)cc(C)c1OC[C@@H](O)CNC(=O)CO` came in with an Activity of 133%.
As for `COCc1cc(-c2nc(-c3ccc(-c4ccc(C(=O)O)c(F)c4)cc3)no2)ccc1-c1ccccc1C`, the Ki in data set [18] was 2.9 nM; in data set [19] it was 2200 nM.
Regarding `CC(C)Cc1ccc(-c2nc(-c3ccc(CN4CC(C(=O)O)C4)cc3)no2)cc1`, the half-life in data set [20] was 11 h; in data set [21], 9 h.
Take `CCCCCCCCc1ccc(CNCCCC(=O)O)cc1`: the half-maximal inhibitory concentration (IC50) was found to be 1200 nM in data set [8] and 7.7 nM in data set [9].
Turning to `COCc1cc(-c2nc(-c3cccc(OCC(=O)O)c3)no2)ccc1-c1ccccc1C`, the inhibitory constant (Ki) in data set [18] worked out at 0.8 nM; in [19], 1040 nM.
As for `CCCCCCCCc1ccc(CC[C@@H](N)CCP(=O)(O)O)cc1`, the figures for the IC50 in [8] and in [9] were 280 nM and 8.4 nM, respectively.
Consider `CCc1cc(/C(C)=N/OCc2ccc(C3CCCCC3)c(C(F)(F)F)c2)ccc1CN1CC(C(=O)O)C1` [SIPONIMOD], for which the Activity in [22] was 16 bpm.
For the compound `CCc1cc(-c2noc(-c3cc(OC)nc(C(CC)CC)c3)n2)cc(C)c1OC[C@@H](O)CO`, the Activity in [1] is 24%; in data set [2], < 5%.
Regarding `CC(C)Cc1ccc(-c2nc(-c3ccc(CN4CC(C(=O)O)C4)c(F)c3)no2)cc1` [ICANBELIMOD], the half-life in [20] and in data set [21] was 5.5 h each time.
